We go through five molecules from US5972598A, “Methods for preventing multidrug resistance in cancer cells” (priority 1995, dated 1999).

“Also recorded” adds a separate entry of the source. Like-named read-outs stand apart in the source and are kept apart here.

Data set [1] concerns the target T1, P-glycoprotein (Homo sapiens, UniProt P08183). Put plainly: Rh123 accumulation assay of P-glycoprotein activity in human PBL. The settings on record: human PBL. How it is done: KG1 cell line was maintained in Iscove's modified Dulbecco medium with 20% fetal calf serum (FCS) and 2 mM L-glutamine, 100 units/ml penicillin and 100 μg/ml streptomycin (GIBCO Laboratories, Grand Island, N.Y.).
A functional assay was used to detect changes in P-glycoprotein activity in human PBL treated with different agents that induce lymphoid differentiation or activation, based on flow cytometric analysis of cellular accumulation of Rh123, which is a P-glycoprotein-transported fluorescent mitochondrial dye. In this assay, cells expressing little or no P-glycoprotein stain brightly with Rh123, whereas cells with higher levels of P-glycoprotein activity appear Rh123-dull. […] Since the best-known cellular effect of TPA is the stimulation of PKC, it was also tested whether DOG, a cell-permeable diacylglycerol and a physiological stimulant of PKC, would have an effect on Rh123 accumulation in PBL.

Data set [2] concerns MDR1. Put plainly: cDNA-PCR / flow cytometric analysis of MDR1 induction by PKC agonists. It counts as cell-based, human. On the procedure:
Neomycin sulfate (Calbiochem) was dissolved in sterile, deionized water.
(§1) P-glycoprotein expression on the cell surface was analyzed using a P-glycoprotein-specific mouse IgG2a monoclonal antibody (mAB) UIC2 (Mechetner and Roninson, 1992, Proc. Natl. Acad. Sci. USA 89:5824-5828). Mouse IgG2a isotype control antibody was obtained from Sigma. For staining of PBL with UIC2 mAB or isotype control, 10^6 cells were stained at 4° C. with 10 μg of the antibody for 30 minutes and, after two washes, stained for 30 minutes with 10 μg of FITC-conjugated goat anti-mouse IgG2a antibody (Fisher Scientific, Fairlawn, N.J.), diluted 1:2 with PBS plus 2% FCS. Cells were then washed twice with ice-cold PBS plus 2% FCS, stained with PI and kept on ice until analysis. Essentially the same protocol was used for staining of other cell types except that 2 μg of the secondary antibody were used per 10^6 cells. In some experiments, phycoerythrine (PE)-conjugated goat anti-mouse IgG2a was used as the secondary antibody; no PI was added in such cases. Flow cytometric analysis was conducted on a Coulter Epics 753 Flow Cytometer.
RNA was extracted from approximately 10^6 cells by a small-scale sodium dodecyl sulfate extraction procedure (Peppel and Baglioni, 1990, BioTechniques 9:711-713). In the alternative, RNA was isolated from cells using the TRIzol method (commercially available from GIBCO/BRL). cDNA synthesis and polymerase chain reaction (PCR) amplification of MDR1 and β2 -microglobulin cDNA sequences were carried out essentially as described (Noonan et al., 1990, Proc. Natl. Acad. Sci. USA 87:7160-7164; Noonan and Roninson, 1991, pp. 319-333 In Roninson (Ed.), Molecular and Cellular Biology of Multidrug Resistance in Tumor Cells, Plenum Press, New York). Briefly, cDNA was prepared using the method of Krug and Berger (1987, Meth. Enzymol. 152: 316-324), with the modification that random hexamers were substituted for oligo(dT) as primers for cDNA synthesis. (Commercially-available kits (for example, from GIBCO/BRL, Gaithersburg, Md.) can be advantageously modified for making cDNA using random hexamers.) PCR is then performed using the following primers: […]
(§2) (where β2 M represents β2 microglobulin). PCR was performed for β2 M experiments under a regime consisting of 1 cycle comprising denaturation at 94° C. for 3 minutes, primer annealing at 60° C. for 30 seconds, and primer extension at 72° C. for 1 minute, followed by 19 cycles comprising denaturation at 94° C. for 30 seconds, primer annealing at 60° C. for 30 seconds, and primer extension at 72° C. for 1 minute, followed by a final cycle comprising denaturation at 94° C. for 30 seconds, primer annealing at 60° C. for 30 seconds, and primer extension at 72° C. for 5 minutes. MDR1 cDNA sequences were amplified using the identical protocol as for β2 M, but extending the amplification from 19 cycles to 25 cycles. In addition, the cDNA-PCR amplification protocol contained the following modifications: (i) Taq DNA polymerase was added to the PCR mixtures after initial heating of the samples to 94° C. (ii) The yield of the β2 -microglobulin-specific band, obtained after 22-28 cycles of PCR, was used as the primary criterion for equalizing the starting amounts of the cDNA templates in different preparations, in order to account for differential RNA degradation in cells subjected to different types of treatment. […] PCR products were detected by autoradiography.
For orientation: A flow cytometer gives signals particle by particle.

Data set [3] concerns MDR1. The class given is cell-based, human. On the procedure: The times of drug exposure are indicated.
(§3) (Commercially-available kits (for example, from GIBCO/BRL, Gaithersburg, Md.) can be advantageously modified for making cDNA using random hexamers.) PCR is then performed using the following primers: […]
Next, it was tested whether drug-induced MDR1 expression was maintained after the cytotoxic treatment. […] At different time points, MDR1 expression in the surviving cells was analyzed by dye efflux and immunofluorescence labeling with UIC2 (FIG. 3c) or by cDNA-PCR (FIG. 4e).

For data set [4], the target named is T1, P-glycoprotein. Put plainly: Dye efflux (Rh123 or DiOC2 (3)) assay of drug-treated K562 cells.
Experimental: Top panel: Rh123 efflux from untreated cells (-) and from cells treated with 50 μM Ara-C (ARA) for 12 hours or with 10 μAra-C for 2 to 3 days.
The test system of data set [5] is MDR1. Put plainly: Inhibition of PKC agonist (TPA or DOG) induced MDR1 expression. The class given is cell-based, human. The conditions noted are these: for inhibition of TPA-induced MDR1 expression: H-9 cells, TPA 10 ng/ml overnight. On the procedure: as §3
Cells were plated in 6-well Falcon tissue culture plates at 3,300 cells per well, and incubated in the appropriate concentrations of drugs. […] or TPA, with the exception of herbimycin A, which was added 12 hours prior to Ara-C or TPA, and tyrphostins A25 and B46, which were each added 16 hours prior to MDR1 induction by the addition of Ara-C or TPA. Cells were incubated overnight (TPA) or for 10 hours (Ara-C) at 37° C. under an atmosphere of 5% CO2 after the addition of the MDR1 inducing agents before harvesting for cDNA-PCR analysis.
(§4) cDNA-PCR analyses on each culture treated with drugs, or in control cultures incubated in the absence or presence of Ara-C or TPA alone, were performed as described in Section 6.1.3 above.

The test system of data set [6] is MDR1. Put plainly: Inhibition of cytotoxic drug (Ara-C) induced MDR1 expression by protein kinase inhibitors. It counts as cell-based, human. How it is done:
FIG. 5. Effect of protein kinase inhibitors on MDR1 mRNA induction by cytotoxic drugs in H9 cells. […]
as §3, §2
Cells were plated in 6-well Falcon tissue culture plates at 3,300 cells per well, and incubated in the appropriate concentrations of drugs. Each of the protein kinase inhibitors to be tested were added at their appropriate final concentrations 45 minutes prior to MDR1 induction by the addition of Ara-C or TPA, with the exception of herbimycin A, which was added 12 hours prior to Ara-C or TPA, and tyrphostins A25 and B46, which were each added 16 hours prior to MDR1 induction by the addition of Ara-C or TPA. Cells were incubated overnight (TPA) or for 10 hours (Ara-C) at 37° C. under an atmosphere of 5% CO2 after the addition of the MDR1 inducing agents before harvesting for cDNA-PCR analysis.
In addition to these conditions, the analysis of certain drugs imposed added requirements. For experiments using calphostin C, cells were incubated under direct white light illumination. For experiments using D,L-threo-sphingosine, the cell culture medium was pre-treated with the appropriate concentration of the drug for one hour at 37° C. with continuous gentle mixing. After this pre-treatment, cells were resuspended in media supplemented with drug and incubated for 45 minutes as described above.
as §4
To further evaluate the capacity of protein kinase inhibitors to suppress MDR1 induction by cytotoxic drugs and PKC agonists, H-9 human T cell leukemia cells were used in cDNA-PCR assays to examine induced MDR1 mRNA expression levels in the presence of such protein kinase inhibitors.

The next data set concerns MRP. Put plainly: Inhibition of MRP expression in H-9 cells. The class given is cell-based, human. Further details: Inhibition of MRP Expression: key to the marks not given beside the values. The settings on record: 32 μM. How it is done:
PCR was performed using the following primers: […]
(where β2 M represents β2 microglobulin). PCR was performed for β2 M experiments under a regime consisting of 1 cycle comprising denaturation at 94° C. for 3 minutes, primer annealing at 60° C. for 30 seconds, and primer extension at 72° C. for 1 minute, followed by 19 cycles comprising denaturation at 94° C. for 30 seconds, primer annealing at 60° C. for 30 seconds, and primer extension at 72° C. for 1 minute, followed by a final cycle comprising denaturation at 94° C. for 30 seconds, primer annealing at 60° C. for 30 seconds, and primer extension at 72° C. for 5 minutes.

For data set [7], the system named is P-glycoprotein. On the procedure:
as §1, with “Mouse” for “P-glycoprotein expression on the cell surface was analyzed using a P-glycoprotein-specific mouse IgG2a monoclonal antibody (mAB) UIC2 (Mechetner and Roninson, 1992, Proc. Natl. Acad. Sci. USA 89:5824-5828). Mouse”, “cases.” for “cases. Flow cytometric analysis was conducted on a Coulter Epics 753 Flow Cytometer.”

Another data set deals with tumor. The settings on record: nude mice; Meyer et al., 1989; cited from earlier work.

T1 sequence (P08183 whole entry): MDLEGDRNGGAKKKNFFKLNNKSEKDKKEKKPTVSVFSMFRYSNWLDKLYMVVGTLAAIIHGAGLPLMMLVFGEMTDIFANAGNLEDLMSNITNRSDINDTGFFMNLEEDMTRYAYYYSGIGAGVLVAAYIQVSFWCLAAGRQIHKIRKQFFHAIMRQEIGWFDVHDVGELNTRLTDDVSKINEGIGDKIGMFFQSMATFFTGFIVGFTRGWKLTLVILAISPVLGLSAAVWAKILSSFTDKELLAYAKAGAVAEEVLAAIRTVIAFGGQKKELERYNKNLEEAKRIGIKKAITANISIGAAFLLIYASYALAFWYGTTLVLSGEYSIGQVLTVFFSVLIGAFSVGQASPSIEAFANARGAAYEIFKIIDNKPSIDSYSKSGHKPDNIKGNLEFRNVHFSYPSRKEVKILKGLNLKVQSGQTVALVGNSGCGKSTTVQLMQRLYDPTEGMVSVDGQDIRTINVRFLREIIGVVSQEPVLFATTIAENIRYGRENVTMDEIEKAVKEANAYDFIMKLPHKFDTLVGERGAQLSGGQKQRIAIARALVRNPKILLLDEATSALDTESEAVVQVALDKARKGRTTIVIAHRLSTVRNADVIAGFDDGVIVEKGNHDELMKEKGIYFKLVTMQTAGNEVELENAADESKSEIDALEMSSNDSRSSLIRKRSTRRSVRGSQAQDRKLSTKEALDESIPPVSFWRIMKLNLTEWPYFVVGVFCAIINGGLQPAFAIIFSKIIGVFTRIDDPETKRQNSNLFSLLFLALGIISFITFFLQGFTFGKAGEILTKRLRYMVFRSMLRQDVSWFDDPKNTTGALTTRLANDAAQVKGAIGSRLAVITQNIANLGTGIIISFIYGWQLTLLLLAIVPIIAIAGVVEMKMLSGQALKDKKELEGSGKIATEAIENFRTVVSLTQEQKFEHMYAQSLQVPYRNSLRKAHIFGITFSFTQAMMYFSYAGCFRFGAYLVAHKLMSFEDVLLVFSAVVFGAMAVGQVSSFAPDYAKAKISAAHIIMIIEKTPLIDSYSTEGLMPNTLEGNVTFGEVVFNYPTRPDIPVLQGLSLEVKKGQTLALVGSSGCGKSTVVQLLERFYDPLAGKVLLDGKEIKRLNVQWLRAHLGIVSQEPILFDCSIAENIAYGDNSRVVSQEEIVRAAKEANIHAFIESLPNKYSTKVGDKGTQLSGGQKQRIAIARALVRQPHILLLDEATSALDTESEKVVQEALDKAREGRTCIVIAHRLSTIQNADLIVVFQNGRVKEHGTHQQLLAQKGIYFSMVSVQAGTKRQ

Turning to `CCCCCCCC(=O)OCC(CO)OC(=O)CCCCCCC` (stereo not drawn) [DOG, 1,2-dioctanoylglycerol], the “effect on P-glycoprotein activity (Rh123 accumulation)” value on P-glycoprotein [1] was “decreased Rh123 accumulation”. In addition, the “induction of MDR1 mRNA and P-glycoprotein” value is “clear-cut induction of MDR1 mRNA and P-glycoprotein” in the data set with MDR1 [2] (H9 cells); “clear-cut induction of MDR1 mRNA and P-glycoprotein” in the data set with MDR1 [2] (K562 cells).

`NC(=O)NO` [hydroxyurea]: in the data set on MDR1 [3], the “MDR1 induction, mRNA and protein levels” value was “MDR1 induction, both at the mRNA and at the protein levels, was observed”; the “MDR1 mRNA induction” value is reported as “induce MDR1 mRNA expression”. The “treated cells showing efflux of Rh123 or DiOC2 (3)” value on P-glycoprotein [4] is 3-10%.

In the case of `COc1cccc2c1C(=O)c1c(O)c3c(c(O)c1C2=O)C[C@@](O)(C(=O)CO)C[C@@H]3O[C@H]1C[C@H](N)[C@H](O)[C@H](C)O1` [Adriamycin], the “MDR1 mRNA expression” value with MDR1 [3] (H9 T-cell leukemia) was “MDR1 mRNA expression was induced”; in the data set with MDR1 [3] (KB-3-1 epidermoid carcinoma, 2 days), “MDR1 mRNA expression was induced”. In the data set with MDR1 [3] (K562 cells), the “MDR1 mRNA induction” value is given as “induce MDR1 mRNA expression”. For the same molecule, the “maintenance of MDR1 expression after removal of the drug” value in the data set on MDR1 [3] (K562 cells treated 3-5 days, then grown in absence of drug) is “least several weeks”. Further, the “MDR1 induction, mRNA and protein levels” value in the data set with MDR1 [3] (human leukemia and solid-tumor derived cell lines, subpopulation of treated cells) is “MDR1 induction, both at the mRNA and at the protein levels, was observed”. At P-glycoprotein [4], the “treated cells showing efflux of Rh123 or DiOC2 (3)” value is given as 3-10%.

For the molecule `COC(=O)C=Cc1cc(O)ccc1O` [methyl-2,5-dihydroxycinnamate], the “inhibition of TPA-induced MDR1 expression” value with MDR1 [5] (32 μM) is reported as “completely inhibited TPA-induced MDR1 expression”. The “inhibition of Ara-C induced MDR1 expression” value is “++++” with MDR1 [6] (H9 cells, 25 μM Ara-C 10 h, 32 μM); “completely inhibit Ara-C induced MDR1 expression” with MDR1 [6] (H-9 cells, 32 μM); “inhibits MDR1 expression at both 32 μM and 64 μM to essentially the same degree” with MDR1 [6] (H-9 cells, 32 μM and 64 μM). For the same molecule, in the data set with MRP, the “Inhibition of MRP Expression” value was “++++”. Also, in the data set on MRP, the “inhibition of MRP expression” value is on record as “strongly inhibited; also recorded: capable of inhibiting MRP expression”.

On to `CN[C@@H]1C[C@H]2O[C@@](C)([C@@H]1OC)n1c3ccccc3c3c4c(c5c6ccccc6n2c5c31)C(=O)NC4` [staurosporine], for which the “inhibition of DOG-induced MDR1 induction” value in the data set with MDR1 [5] (H9 cells, staurosporine 30 nM, 30 minutes prior to DOG) was “completely abolished MDR1 induction”. Further, the “inhibition of TPA-induced MDR1 induction” value with MDR1 [5] (H9 cells, staurosporine 30 nM, 30 minutes prior to TPA) is “completely abolished MDR1 induction”. Moreover, the “inhibition of TPA-induced MDR1 expression” value in the data set with MDR1 [5] (30 nM) was “completely inhibited TPA-induced MDR1 expression”. Besides, the “prevention of MDR1 induction by TPA, diacylglycerol, Ara-C, vinblastine, methotrexate and Adriamycin” value with MDR1 [6] (P-glycoprotein-negative cells, 30 nM) is reported as “prevent MDR1 induction”. In addition, the “P-glycoprotein expression, inhibitor alone” value is recorded as “significant increase in P-glycoprotein expression” in the data set on P-glycoprotein [7] (KG1a cells, staurosporine 100 nM) and “significant increase in P-glycoprotein expression” in the data set with P-glycoprotein [7] (KG1 cells). For the same molecule, the “MDR1 expression, inhibitor alone” value with P-glycoprotein [7] (P-glycoprotein-negative H9 cells, 30 nM) is on record as “did not induce MDR1 expression”. For the same molecule, in the data set with tumor, the “anti-tumor effect at fraction of MTD” value was 1/10. In the data set on tumor, the “maximum tolerated dose (MTD)” value is on record as 1 mg/kg.
